Test results reported in US6534522B2, “Subtype-selective NMDA receptor ligands and the use thereof” (Warner-Lambert Company, priority 1995, dated 2003).
Where a name gives a salt, the structure may show the parent alone. Read-outs that look alike come from different tables or passages of the source.

Tests used:
[1] = target: NR1A/2A NMDA receptor (Rattus norvegicus, UniProt P35439+Q00959); assay: Xenopus oocyte expression system, two-electrode voltage clamp, NR1A/2A; format: cell-based
Description: (§1) Electrophysiological assays may be utilized to characterize the actions of potential subtype-selective ligands at NMDA receptors expressed in Xenopus oocytes. The ligand may be assayed at the different subunit combinations of cloned rat NMDA receptors corresponding to the four putative NMDA receptor subtypes (Moriyoshi et al., Nature (Lond.) 354:31-37 (1991); Monyer et al., Science (Washington, D.C.) 256:1217-1221 (1992); Kutsuwada et al., Nature (Lond.) 358:36-41 (1992); Sugihara et al., Biochem. Biophys. Res. Comm. 185:826-832 (1992)).
(§2) Using fixed saturating concentrations of agonists (glutamate 100 μM, glycine 1-10 μM depending on subunit combination), the inhibitory potency of a putative subtype-selective ligand may be assayed at the NMDA receptors assembled from NR1A/2A, NR1A/2B, NR1A/2C and NR1A/2D subunit combinations.
(§3) The Xenopus oocyte expression system. Mature female Xenopus laevis were anaesthetized (20-40 min) using 0.15% 3-aminobenzoic acid ethyl ester (MS-222) and 2-4 ovarian lobes were surgically removed. Oocytes at developmental stages IV-VI (Dumont, J. N., J. Morphol. 136:153-180 (1972)), were dissected from the ovary still surrounded by enveloping ovarian tissues. Follicle-enclosed oocytes were micro-injected with 1:1 mixtures of cRNA:NR1A+NR2A, 2B, 2C or 2D; injecting ˜2, 5, or 20 ng of RNA encoding each receptor subunit. NR1A encoding cRNA was injected alone at ˜20 ng. Oocytes were stored in Barth's medium containing (in mM): NaCl, 88; KCl, 1; CaCl2, 0.41; Ca(NO3)2, 0.33; MgSO4, 0.82; NaHCO3, 2.4; HEPES 5; pH 7.4, with 0.1 mg/mL gentamycin sulphate. While oocytes were still surrounded by enveloping ovarian tissues the Barth's medium was supplemented with 0.1% bovine serum. Oocytes were defolliculated 1-2 days following injections by treatment with collagenase (0.5 mg/mL Sigma Type I for 0.5-1 hr) (Miledi and Woodward, J. Physiol. (Lond.) 416:601-621 (1989)) and subsequently stored in serum-free medium.
(§4) Electrical recordings were made using a conventional two-electrode voltage clamp (Dagan TEV-200) over periods ranging between 3-21 days following injection. Oocytes were placed in a 0.1 mL recording chamber continuously perfused (5-15 mL min^−1) with frog Ringer's solution containing (in mM): NaCl, 115; KCl, 2; CaCl2, 1.8; HEPES, 5; pH 7.4. Drugs were applied by bath perfusion. When using the more rapid flow rates, half-times for mid-chamber solution changes were between 2-3 sec, however, exchange rates for drug solutions at the oocyte surface (i.e. beneath the vitelline envelope and among the tangles of microvilli) were probably considerably longer (Woodward et al., Mol. Pharmacol. 41:89-103 (1992)). Zero-Ca^2+/Ba^2+ Ringer had the composition (in mM): NaCl, 115; KCl, 2; BaCl2, 1.8; HEPES, 5; pH 7.4. Intraoocyte injections were made by pneumatic pressure-pulse ejection from micropipettes (Miledi and Parker, J. Physiol. (Lond.) 357:173-183 (1984)). Injection solutions of EGTA (40-400 mM) and BAPTA (50-500 mM) were made up in H2O, pH adjusted to 7.4 with KOH or HCl, and filtered to minimize plugging (Acrodisc-13, […]). Pressure was set between 200-400 kPa. The volume of injections was regulated by adjusting the time of pulses (0.1-1 sec) and was estimated by measuring the diameters of ejected droplets.
(§5) Concentration-inhibition curves were fit with equation 2.
(§6) I/Icontrol=1/(1+([antagonist]/10^−pIC50)^n) Eq. 2
(§7) in which Icontrol is the current evoked by agonists alone, pIC50=−log IC50, […] is the concentration of antagonist that produces half maximal inhibition, and n is the slope factor. For incomplete curves analysis by fitting was unreliable and IC50 values were calculated by simple regression over linear portions of the curves (Origin: Microcal Software).
(§8) Drugs were initially dissolved at concentrations of 10-100 mM in DMSO. Dilutions were then made to generate a series of DMSO stock solutions over the range 10 μM to 100 mM. Working solutions were made by 1000-3000 fold dilution of stocks into Ringer. […]

[2] = target: NR1A/2C NMDA receptor (Rattus norvegicus, UniProt P35439+Q00961); assay: Xenopus oocyte expression system, two-electrode voltage clamp, NR1A/2C; format: cell-based
Description: as §1, §2, §3, §4, §5, §6, §7, §8

[3] = target: NR1A/2B NMDA receptor (Rattus norvegicus, UniProt P35439+Q00960); assay: Xenopus oocyte expression system, two-electrode voltage clamp, NR1A/2B; format: cell-based
Description: as §1, §2, §3, §4, §5, §6, §7, §8

[4] = cloned NR1A/2A subunits expressed in Xenopus oocytes, inhibition of agonist-evoked membrane current, read-out: 1A/2A IC50
[5] = cloned NR1A/2C subunits expressed in Xenopus oocytes, inhibition of agonist-evoked membrane current, read-out: 1A/2C IC50
[6] = cloned NR1A/2B subunits expressed in Xenopus oocytes, inhibition of agonist-evoked membrane current, read-out: 1A/2B IC50

Sequence of NR1A/2B NMDA receptor (Q00960 27-1482, other chains not shown): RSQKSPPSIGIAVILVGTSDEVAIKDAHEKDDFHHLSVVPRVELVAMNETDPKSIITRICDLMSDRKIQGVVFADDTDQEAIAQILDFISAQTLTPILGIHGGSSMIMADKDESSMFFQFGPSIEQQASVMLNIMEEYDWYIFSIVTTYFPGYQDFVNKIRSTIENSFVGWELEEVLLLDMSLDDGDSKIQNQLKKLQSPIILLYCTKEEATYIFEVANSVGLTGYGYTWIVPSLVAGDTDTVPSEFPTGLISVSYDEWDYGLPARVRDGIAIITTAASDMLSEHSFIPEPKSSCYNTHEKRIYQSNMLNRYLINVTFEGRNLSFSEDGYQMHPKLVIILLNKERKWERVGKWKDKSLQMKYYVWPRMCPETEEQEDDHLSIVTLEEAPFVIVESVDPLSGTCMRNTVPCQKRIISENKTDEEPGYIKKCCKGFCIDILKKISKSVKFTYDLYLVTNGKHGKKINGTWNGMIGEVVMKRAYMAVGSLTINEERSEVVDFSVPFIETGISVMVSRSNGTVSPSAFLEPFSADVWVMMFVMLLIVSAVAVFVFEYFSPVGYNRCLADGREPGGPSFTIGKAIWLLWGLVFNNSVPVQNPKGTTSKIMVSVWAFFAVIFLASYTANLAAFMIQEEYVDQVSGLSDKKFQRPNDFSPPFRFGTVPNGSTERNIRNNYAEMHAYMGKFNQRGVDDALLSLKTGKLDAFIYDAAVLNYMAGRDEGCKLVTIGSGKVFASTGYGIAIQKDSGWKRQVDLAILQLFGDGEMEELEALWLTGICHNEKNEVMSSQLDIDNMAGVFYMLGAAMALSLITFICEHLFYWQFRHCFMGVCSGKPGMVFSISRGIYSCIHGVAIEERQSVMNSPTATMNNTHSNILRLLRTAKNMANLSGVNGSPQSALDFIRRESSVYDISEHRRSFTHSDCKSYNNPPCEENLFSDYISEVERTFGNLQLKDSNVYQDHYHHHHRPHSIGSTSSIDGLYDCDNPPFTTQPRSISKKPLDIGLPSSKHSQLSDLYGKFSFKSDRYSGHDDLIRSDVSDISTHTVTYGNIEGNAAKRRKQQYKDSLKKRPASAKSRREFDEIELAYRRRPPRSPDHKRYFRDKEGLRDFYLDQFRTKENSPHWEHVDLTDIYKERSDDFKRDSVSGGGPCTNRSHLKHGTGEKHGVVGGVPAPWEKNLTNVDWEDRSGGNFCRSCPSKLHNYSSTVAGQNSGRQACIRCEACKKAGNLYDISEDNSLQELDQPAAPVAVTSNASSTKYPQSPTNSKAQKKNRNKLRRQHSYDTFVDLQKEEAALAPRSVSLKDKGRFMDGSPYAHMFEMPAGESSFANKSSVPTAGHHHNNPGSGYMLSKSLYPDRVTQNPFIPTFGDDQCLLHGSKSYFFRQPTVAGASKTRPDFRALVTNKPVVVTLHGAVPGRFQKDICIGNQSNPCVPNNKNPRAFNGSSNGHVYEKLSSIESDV
Sequence of NR1A/2A NMDA receptor (Q00959 20-1464 limits assumed, other chains not shown): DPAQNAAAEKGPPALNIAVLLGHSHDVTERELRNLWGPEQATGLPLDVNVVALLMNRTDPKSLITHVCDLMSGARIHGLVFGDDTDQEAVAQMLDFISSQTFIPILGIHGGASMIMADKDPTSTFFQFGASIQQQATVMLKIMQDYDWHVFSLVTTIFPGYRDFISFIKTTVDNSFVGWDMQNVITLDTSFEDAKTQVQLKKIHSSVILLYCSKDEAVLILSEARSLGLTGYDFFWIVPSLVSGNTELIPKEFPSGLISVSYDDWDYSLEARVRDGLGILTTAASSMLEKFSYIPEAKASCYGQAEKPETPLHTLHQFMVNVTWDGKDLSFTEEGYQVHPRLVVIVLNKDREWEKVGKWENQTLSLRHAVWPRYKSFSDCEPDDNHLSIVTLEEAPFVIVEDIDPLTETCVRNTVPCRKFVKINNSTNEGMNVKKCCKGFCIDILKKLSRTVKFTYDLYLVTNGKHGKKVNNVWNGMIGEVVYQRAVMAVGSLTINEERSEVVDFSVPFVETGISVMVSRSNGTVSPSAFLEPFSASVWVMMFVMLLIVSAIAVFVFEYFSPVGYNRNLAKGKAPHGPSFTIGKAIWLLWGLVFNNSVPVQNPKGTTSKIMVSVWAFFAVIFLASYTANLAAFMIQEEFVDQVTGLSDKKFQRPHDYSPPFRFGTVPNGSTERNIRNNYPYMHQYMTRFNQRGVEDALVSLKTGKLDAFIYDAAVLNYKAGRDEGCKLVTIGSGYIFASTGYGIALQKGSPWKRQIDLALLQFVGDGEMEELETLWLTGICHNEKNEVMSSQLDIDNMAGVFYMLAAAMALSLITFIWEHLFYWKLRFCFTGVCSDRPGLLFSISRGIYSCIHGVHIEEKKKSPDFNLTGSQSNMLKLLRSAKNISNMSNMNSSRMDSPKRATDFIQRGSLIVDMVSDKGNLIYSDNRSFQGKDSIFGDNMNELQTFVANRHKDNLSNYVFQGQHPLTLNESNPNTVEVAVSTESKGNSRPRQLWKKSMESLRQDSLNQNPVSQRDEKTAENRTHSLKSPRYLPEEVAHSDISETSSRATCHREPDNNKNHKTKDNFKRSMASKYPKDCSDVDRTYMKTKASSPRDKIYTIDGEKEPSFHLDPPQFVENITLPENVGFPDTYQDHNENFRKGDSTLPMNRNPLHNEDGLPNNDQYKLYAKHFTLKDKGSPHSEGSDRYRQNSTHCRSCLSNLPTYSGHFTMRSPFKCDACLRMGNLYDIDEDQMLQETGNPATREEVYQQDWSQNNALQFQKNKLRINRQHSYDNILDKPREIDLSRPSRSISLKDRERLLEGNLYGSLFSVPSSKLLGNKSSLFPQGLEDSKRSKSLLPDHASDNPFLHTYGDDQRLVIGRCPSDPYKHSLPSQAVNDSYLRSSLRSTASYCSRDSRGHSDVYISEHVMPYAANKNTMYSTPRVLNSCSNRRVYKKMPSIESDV
Sequence of NR1A/2C NMDA receptor (Q00961 20-1237, other chains not shown): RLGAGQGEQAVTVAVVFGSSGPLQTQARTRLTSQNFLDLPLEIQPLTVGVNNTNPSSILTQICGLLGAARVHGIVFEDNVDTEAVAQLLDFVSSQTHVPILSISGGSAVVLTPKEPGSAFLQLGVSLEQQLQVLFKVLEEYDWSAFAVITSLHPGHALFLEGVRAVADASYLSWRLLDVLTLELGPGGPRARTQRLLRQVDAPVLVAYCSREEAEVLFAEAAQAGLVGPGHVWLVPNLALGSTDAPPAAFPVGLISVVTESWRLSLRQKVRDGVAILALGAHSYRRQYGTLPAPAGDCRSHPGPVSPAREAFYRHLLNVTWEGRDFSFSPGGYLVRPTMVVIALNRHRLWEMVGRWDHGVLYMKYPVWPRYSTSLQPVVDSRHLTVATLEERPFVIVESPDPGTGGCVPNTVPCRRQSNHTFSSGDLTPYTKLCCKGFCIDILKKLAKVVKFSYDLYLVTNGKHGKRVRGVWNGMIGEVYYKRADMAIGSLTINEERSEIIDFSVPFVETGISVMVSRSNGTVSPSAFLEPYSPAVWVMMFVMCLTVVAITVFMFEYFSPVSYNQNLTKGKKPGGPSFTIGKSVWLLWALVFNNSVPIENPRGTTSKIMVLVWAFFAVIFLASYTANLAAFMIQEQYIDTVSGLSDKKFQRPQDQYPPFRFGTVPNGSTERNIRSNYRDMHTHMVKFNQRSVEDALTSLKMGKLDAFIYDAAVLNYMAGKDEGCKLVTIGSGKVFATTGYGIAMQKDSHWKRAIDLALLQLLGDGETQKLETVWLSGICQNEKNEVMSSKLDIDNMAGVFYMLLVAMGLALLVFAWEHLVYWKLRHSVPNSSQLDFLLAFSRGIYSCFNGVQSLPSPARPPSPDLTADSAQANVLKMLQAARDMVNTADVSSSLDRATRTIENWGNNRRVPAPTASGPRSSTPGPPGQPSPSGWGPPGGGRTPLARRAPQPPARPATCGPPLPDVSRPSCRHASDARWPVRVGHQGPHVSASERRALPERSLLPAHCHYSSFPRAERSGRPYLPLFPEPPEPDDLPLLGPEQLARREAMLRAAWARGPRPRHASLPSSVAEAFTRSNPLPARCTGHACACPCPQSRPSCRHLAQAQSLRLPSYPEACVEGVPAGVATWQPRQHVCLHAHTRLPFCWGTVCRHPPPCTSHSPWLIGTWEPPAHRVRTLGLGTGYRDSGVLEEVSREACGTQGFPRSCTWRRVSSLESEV

melting point [°C] | IC50 [1, 4] [µM] | IC50 [2, 5] [µM] | IC50 [3, 6] [µM] | Molecule | IC50 [1] [µM] | IC50 [2] [µM] | IC50 [3] [µM]
93 to 94 |  |  |  | Br.c1ccc(CC2CCCN(CCOc3ccccc3)C2)cc1 (stereo not shown) |  |  | 
105 to 107 |  |  |  | Br.c1ccc(CCCCN2CCCC(Cc3ccccc3)C2)cc1 (stereo not shown) |  |  | 
137 to 142 |  |  |  | Br.c1ccc(CCN2CCCC(Cc3ccccc3)C2)cc1 (stereo not shown) |  |  | 
152 to 154 |  |  |  | Br.FC(F)(F)c1cccc(CCN2CCCC(Cc3ccccc3)C2)c1 (stereo not shown) |  |  | 
143 to 145 |  |  |  | Br.Clc1ccc(CCN2CCCC(Cc3ccccc3)C2)cc1 (stereo not shown) |  |  | 
74 to 78 |  |  |  | Br.COc1ccc(CCN2CCCC(Cc3ccccc3)C2)cc1 (stereo not shown) |  |  | 
138 to 141 |  |  |  | Cl.O=C(c1ccc(F)cc1)C1CCN(CCOc2ccc(F)cc2)CC1 |  |  | 
 | > 300 | > 300 | 4 | NNC(=O)CCCCN1CCC(Cc2ccccc2)CC1 [Ex. 3, 4-Benzylpiperidylpentahydrazide] |  |  | 
 | > 300 | > 300 | 65 | Fc1cccc(C[P+](c2ccccc2)(c2ccccc2)c2ccccc2)c1 [Ex. 8, m-Fluorobenzyltriphenylphosphonium bromide] |  |  | 
 | 240 | > 300 | 14 | Fc1cccc(C=C2CCN(Cc3ccccc3)CC2)c1 [Ex. 9, 1-Benzyl-4-(m-fluorobenzylidene)piperidine] |  |  | 
 | 20 | 80 | 17 | OC1(Cc2ccccc2)CCN(CCCc2ccccc2)CC1 [Ex. 16, 4-Benzyl-4-hydroxy-1-(3-phenylpropyl)piperidine] |  |  | 
 | 140 | > 100 | 35 | c1ccc(OCCN2CCc3ccccc3C2)cc1 [Ex. 18, N-(2-Phenoxyethyl)-1,2,3,4-tetrahydroisoquinoline] |  |  | 
 | 75 | 275 | 10 | c1ccc(OCCCN2CCc3ccccc3C2)cc1 [Ex. 19, N-(3-Phenoxypropyl)-1,2,3,4-tetrahydroisoquinoline] |  |  | 
 | > 300 | > 300 | 50 | O=C(c1ccccc1)C1CCN(CCOc2ccccc2)CC1 [Ex. 27, 4-Benzoyl-1-(2-phenoxyethyl)piperidine] |  |  | 
 | 95 | > 100 | 8 | O=C(Nc1ccc([N+](=O)[O-])cc1)N1CCC(Cc2ccccc2)CC1 [Ex. 30, 1-[2-aza-1-oxo-2-(4-nitrophenyl)ethyl]-4-benzylpiperidine] |  |  | 
 |  |  |  | C=CCN1CCCCC1Cc1ccccc1 (stereo not shown) [Ex. 38(A), 1-Allyl-2-benzylpiperidine, hydrobromide] | 25 | 65 | 72
 | 270 | > 300 | 40 | NCCCN1CCC(Cc2ccccc2)CC1 [Ex. 47, 4-Benzyl-1-(3-aminopropyl) piperidine] |  |  | 
 | > 300 | > 300 | 12 | OCCCCN1CCC(Cc2ccccc2)CC1 [Ex. 86, 4-Benzyl-1-(4-hydroxybutyl)piperidine hydrobromide] |  |  | 
 | > 300 | > 300 | 7 | OCCCN1CCC(O)(Cc2ccccc2)CC1 [Ex. 87, 4-Benzyl-4-hydroxy-1-(3-hydroxypropyl)piperidine] |  |  | 
 | > 300 | > 300 | 1.3 | OCCCN1CCC(Cc2ccc(F)cc2)CC1 [Ex. 90, 4-(4-Fluorobenzyl)-1-(3-hydroxypropyl) piperidine hydrobromide] |  |  | 
 | > 300 | > 300 | 8 | C[C@@H](CO)CN1CCC(Cc2ccc(F)cc2)CC1 [Ex. 92, (R)-4-(4-Fluorobenzyl)-1-(3-hydroxy-2-methylpropyl) piperidine hydrochloride] |  |  | 
 | 120 | > 300 | 17 | CC(O)CCN1CCC(Cc2ccc(N)cc2)CC1 (stereo not shown) [Ex. 105, 4-(4-aminobenzyl)-1-(3-hydroxy-butyl) piperidine hydrochloride] |  |  | 
 | 24 | > 300 | 7.5 | O=c1[nH]c2ccc(OCCCN3CCc4ccccc4C3)cc2[nH]1 [Ex. 108, N-(3-(2-oxobenzimidazol-5-oxy)propyl)-1,2,3,4-tetrahydroisoquinoline] |  |  | 
 | 190 | > 300 | 140 | O=c1[nH]c2ccc(OCCN3CCc4ccccc4C3)cc2[nH]1 [Ex. 109, N-(2-(2-oxobenzimidazol-5-oxy)ethyl)-1,2,3,4-tetrahydroisoquinoline] |  |  | 

Molecule | melting point [°C] | IC50 [1, 4] [µM] | IC50 [2, 5] [µM] | IC50 [3, 6] [µM] | IC50 [1] [µM] | IC50 [2] [µM] | IC50 [3] [µM]
1-(2-Phenylethyl)-4-benzylidenepiperidine [Ex. 15] |  | 60 | 230 | 5.5 |  |  | 
CCCCCCN1CCC(Cc2ccccc2)CC1 [(A), 4-benzyl-1-hexylpiperidine] |  | > 300 | > 300 | 5 |  |  | 
CCCCN1CCC(Cc2ccccc2)CC1 [(B), 4-benzyl-1-butylpiperidine] |  | > 300 | > 300 | 25 |  |  | 
O=C(c1cccc(F)c1)C1CCN(CCCCc2ccccc2)CC1 [(C), 4-(3′-fluorobenzoyl)-1-(4″-phenylbutyl)piperidine] |  | > 300 | > 300 | 10 |  |  | 
NC(=O)CCCCN1CCC(Cc2ccccc2)CC1 [Ex. 2, 4-Benzylpiperidylpentamide] |  | > 300 | > 300 | 1.6 |  |  | 
C#CCCN1CCC(Cc2ccccc2)CC1 [Ex. 6, 4-benzyl-1-(3-Butynyl)piperidine] |  | > 300 | > 300 | 2.3 |  |  | 
C#CCCN1CCC(O)(c2ccc(Cl)cc2)CC1 [Ex. 7, 1-(3-Butynyl)-4-(p-chlorphenyl)-4-hydroxypiperidine] |  | > 300 | > 300 | 65 |  |  | 
O=C(CCCN1CCC(O)CC1)c1ccccc1 [Ex. 13, 4-(4-Hydroxypiperidinyl) butyrophenone] |  | 80 | 140 | 53 |  |  | 
COC(=O)CCCCN1CCCC(Cc2ccccc2)C1 (stereo not shown) [Ex. 34, 5-(3-Benzylpiperidinyl)valeric acid methyl ester] |  | > 300 | > 300 | 240 |  |  | 
CCOC(=O)CCCN1CCCC(Cc2ccccc2)C1 (stereo not shown) [Ex. 35, 4-(3-Benzylpiperidinyl)butyric acid ethyl ester] |  | > 300 | > 300 | 150 |  |  | 
C=CC[N+]1(CC=C)CCCCC1Cc1ccccc1 (stereo not shown) [Ex. 38(B), 2-benzyl-l,1-diallylpiperidinium iodide] |  | 28 | 50 | 50 |  |  | 
CCOC(=O)CCCN1CCC(Cc2ccccc2)CC1 [Ex. 41, 4-(4-Benzylpiperidinyl) butyric acid ethyl ester hydrobromide salt] |  | > 300 | > 300 | > 300 |  |  | 
OCC1CC2CC(Cc3ccccc3)CCN2C1 (stereo not shown) [Ex. 88, 7-Benzyl-1,2,3,5,6,7,8,9-octahydro-2-(hydroxymethyl)indolizine] |  | > 300 | > 300 | 5 |  |  | 
